Common to all, as to experiment: inhibition of tumour cell growth, NCI panel, 48 h
The test system of test [1] is 786-0.
The subject of test [2] is CCRF-CEM.
Test [3] relates to HCC 2998.
Test [4] concerns HCT-15.
The test system of test [5] is HL-60.
In test [6] the test system is HOP-18.
The subject of test [7] is MDA-N.
Test [8] relates to NCI-H460.
The subject of test [9] is NCI-H522.
Test [10] relates to OVCAR-3.
For test [11], the system named is OVCAR-8.
The test system of test [12] is SK-MEL-2.
In test [13] the test system is SK-OV-3.
Test [14] deals with SN12C.
Test [15] relates to SNB-19.
Test [16] deals with SW-620.
Test [17] concerns T47D.
In test [18] the test system is TK-10.
Test [19] concerns UACC-257.
The test system of test [20] is UACC-62.

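Five compound concentrations were applied to cells in 96-well plates for 48 hours; endpoints were derived by simple linear interpolation of the resulting dose-response curve. Abbreviation: GI50, concentration required for 50% inhibition of growth.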 Activity calls are given as the source filed them. No stated cut-off is given here; in the data, active = GI50 up to about 1.1 µM and inactive = higher.

`O=C1c2ccccc2C(=O)c2sc(Nc3ccc([N+](=O)[O-])cc3)nc21`: the GI50 in test [1] was 5.27 µM (inactive); in test [2], 1.97 µM (inactive); in test [3] it was 16 µM (inactive); in test [4], 5.32 µM; in test [5] it was 0.984 µM (active); in test [6] it was 4.33 µM (inactive). For the same molecule, the GI50 in test [7] is 2 µM (inactive); in test [8], 10 µM (inactive); in test [9] it was 2.55 µM (inactive); in test [10], 2.24 µM (inactive); in test [11], 4.66 µM (inactive); in [12], 13.6 µM (inactive). Also, the GI50 in test [13] was 21.7 µM (inactive); in [14], 3.19 µM (inactive); in test [15], 10.3 µM (inactive); in test [16], 4 µM (inactive); in [17], 2.18 µM (inactive); in [18], 12.2 µM (inactive). The GI50 in [19] is 4.9 µM (inactive); in [20], 3.08 µM (inactive).

These data come from ChEMBL document CHEMBL1201862, “PubChem BioAssay data set” (2004).
